Source: patent US6878698B2, “Anti-inflammatory androstane derivatives” (Glaxo Group Limited, priority 2001, dated 2005)
“Also recorded” adds a separate entry of the source.

Tests used:
glucocorticoid receptor = target: T1, glucocorticoid receptor (Homo sapiens, UniProt P04150); test: Functional in vitro assay of glucocorticoid agonist activity (A549 cells, NF-κB/ELAM promoter sPAP reporter, TNF stimulated); assay type: cell-based; details: A549 cells, NF-κB responsive sPAP reporter; compound 1 hour at 37° C., then TNF 10 ng/ml for 16 hours
T1 construct: A549 cells stably transfected with a reporter gene containing the NF-κB responsive elements from the ELAM gene promoter; endogenous in cells; host or cells: A549 cells stably transfected with the reporter gene only
T1 sequence (P04150 1-777): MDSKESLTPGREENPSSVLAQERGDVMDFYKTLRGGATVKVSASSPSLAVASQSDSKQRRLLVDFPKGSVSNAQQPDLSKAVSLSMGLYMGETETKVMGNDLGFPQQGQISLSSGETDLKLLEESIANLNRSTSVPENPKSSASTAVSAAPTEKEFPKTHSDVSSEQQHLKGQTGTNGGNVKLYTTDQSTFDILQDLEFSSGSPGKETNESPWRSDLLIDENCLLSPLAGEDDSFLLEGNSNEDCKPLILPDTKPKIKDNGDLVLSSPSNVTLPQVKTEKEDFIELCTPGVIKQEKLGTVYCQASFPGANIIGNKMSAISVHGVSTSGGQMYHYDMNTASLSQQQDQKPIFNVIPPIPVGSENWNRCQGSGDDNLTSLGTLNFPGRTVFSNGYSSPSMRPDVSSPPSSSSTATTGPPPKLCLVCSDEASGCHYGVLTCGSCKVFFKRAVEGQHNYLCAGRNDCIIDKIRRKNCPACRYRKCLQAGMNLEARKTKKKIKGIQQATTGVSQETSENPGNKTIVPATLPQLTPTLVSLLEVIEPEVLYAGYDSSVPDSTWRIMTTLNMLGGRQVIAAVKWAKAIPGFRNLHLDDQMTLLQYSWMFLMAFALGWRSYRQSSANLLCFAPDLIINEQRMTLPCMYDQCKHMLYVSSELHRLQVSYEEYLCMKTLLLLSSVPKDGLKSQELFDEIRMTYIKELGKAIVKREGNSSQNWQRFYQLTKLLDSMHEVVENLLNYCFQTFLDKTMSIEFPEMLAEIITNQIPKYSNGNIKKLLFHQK
Description: Pharmacological activity was assessed in a functional in vitro assay of glucocorticoid agonist activity which is generally predictive of anti-inflammatory or anti-allergic activity in vivo.
A549 cells stably transfected with a reporter gene containing the NF-κB responsive elements from the ELAM gene promoter coupled to sPAP (secreted alkaline phosphatase) were treated with test compounds at appropriate doses for 1 hour at 37° C. […] Dose response curves were constructed from which EC50 values were estimated.

in vivo = details: male, Wistar Han, rat, plasma, iv, 0.1 mg/kg
[1] = Pharmacokinetics after intravenous (IV) and oral dosing in rats; details: for plasma clearance (in words): in vivo in the rat
[2] = Pharmacokinetics after intravenous administration in the anaesthetised pig; assay type: in vivo; details: mixture of the two compounds IV at 0.1 mg/kg
Description: The clearance of these two glucocortocoids is similar is this experimental pig model.

[3] = Pharmacokinetics after intra-tracheal dry powder dosing in the pig; assay type: in vivo; details: for time after dosing up to which quantifiable in plasma / AUC (0-inf): 1 mg intra-tracheal dry powder; for time after dosing up to which quantifiable in plasma: LC-MS/MS, lower limits of quantitation 10 and 20 pg/mL; for Cmax: 1 mg intra-tracheal dry powder blend in lactose, anaesthetised; for AUC (0-inf): Example 1 value calculated with plasma half-life from IV dosing
Description: Serial blood samples were taken for up to 8 h following dosing.

rat hepatocytes = test: In vitro metabolism in rat hepatocytes; assay type: in vitro ADME; details: 17-β carboxylic acid (X) the only significant metabolite
lung eosinophilia = test: Ovalbumin sensitised Brown Norway rat eosinophilia model; assay type: in vivo; details: for inhibition of lung eosinophilia: single intra-tracheal dose of 30 μg, suspension in saline, 30 min prior to ovalbumin challenge
Description: Pharmacological activity in vivo was assessed in an ovalbumin sensitised Brown Norway rat eosinophilia model. This model is designed to mimic allergen induced lung eosinophilia, a major component of lung inflammation in asthma.

thymus weight = test: Rat model of thymus involution; assay type: in vivo; details: 3 daily IT doses of 100 μg
human hepatocytes = test: In vitro metabolism in human hepatocytes; assay type: in vitro ADME; details: 17-β carboxylic acid (X) the only significant metabolite

Compound `Cc1noc(C)c1C(=O)O[C@]1(C(=O)SCF)[C@H](C)C[C@H]2[C@@H]3C[C@H](F)C4=CC(=O)C=C[C@]4(C)[C@@]3(F)[C@@H](O)C[C@@]21C` [Example 10, 6α,9α-Difluoro-17α-[(3,5-dimethylisoxazole-4-carbonyl)oxy]-11β-hydroxy-16α-methyl-3-oxo-androsta-1,4-diene-17β-carbothioic acid S-fluoromethyl ester] has an EC50 (glucocorticoid receptor) of 1 nM.
With `Cc1ccoc1C(=O)OC1(C(=O)SCF)C(C)CC2C3CC(F)C4=CC(=O)C=CC4(C)C3(F)C(O)CC21C` (stereo not drawn) [Example 19, 6α,9α-Difluoro-11β-hydroxy-16α-methyl-17α-[(3-methylfuran-2-carbonyl)oxy]-3-oxo-androsta-1,4-diene-17β-carbothioic acid S-fluoromethyl ester] the clearance (in vivo) was 48 mL/min/kg and the “plasma clearance (in words)” value [1] was “approaching hepatic blood flow”.
For `Cc1cc(C(=O)OC2(C(=O)SCF)C(C)CC3C4CC(F)C5=CC(=O)C=CC5(C)C4(F)C(O)CC32C)on1` (stereo not drawn) [Example 25, 6α,9α-Difluoro-11β-hydroxy-16α-methyl-17α-[(3-methylisoxazole-5-carbonyl)oxy]-3-oxo-androsta-1,4-diene-17β-carbothioic acid S-fluoromethyl ester], the clearance (in vivo) was 46 mL/min/kg and the “plasma clearance (in words)” value [1] was “approaching hepatic blood flow”.
For `Cc1cc(C(=O)OC2(C(=O)SCF)C(C)CC3C4CC(F)C5=CC(=O)C=CC5(C)C4(F)C(O)CC32C)no1` (stereo not drawn) [Example 24, 6α,9α-Difluoro-11β-hydroxy-16α-methyl-17α-[(5-methylisoxazole-3-carbonyl)oxy]-3-oxo-androsta-1,4-diene-17β-carbothioic acid S-fluoromethyl ester], the clearance (in vivo) was 47 mL/min/kg and the “plasma clearance (in words)” value [1] was “approaching hepatic blood flow”.
Work on `Cc1nc(C)c(C(=O)O[C@]2(C(=O)SCF)[C@H](C)C[C@H]3[C@@H]4C[C@H](F)C5=CC(=O)C=C[C@]5(C)[C@@]4(F)[C@@H](O)C[C@@]32C)s1` [Example 23, 6α,9α-Difluoro-17α-[(2,4-dimethyl-1,3-thiazole-5-carbonyl)oxy]-11β-hydroxy-16α-methyl-3-oxo-androsta-1,4-diene-17 β-carbothioic acid S-fluoromethyl ester] yielded an EC50 (glucocorticoid receptor) of 17 nM.
In the case of `CC1CC2C3CC(F)C4=CC(=O)C=CC4(C)C3(F)C(O)CC2(C)C1(OC(=O)c1ccon1)C(=O)SCF` (stereo not drawn) [Example 28, 6α,9α-Difluoro-11β-hydroxy-17α-[(isoxazole-3-carbonyl)oxy]-16α-methyl-3-oxo-androsta-1,4-diene-17β-carbothioic acid S-fluoromethyl ester], the clearance (in vivo) is reported as 51 mL/min/kg and the “plasma clearance (in words)” value [1] is reported as “approaching hepatic blood flow”.
For `C[C@@H]1CC2C3C[C@H](F)C4=CC(=O)C=C[C@]4(C)[C@@]3(F)[C@@H](O)C[C@]2(C)[C@@]1(OC(=O)c1ccco1)C(=O)SCF` (stereo partly drawn) [Example 1, 6α,9α-Difluoro-17α-[(2-furanylcarbonyl)oxy]-11β-hydroxy-16α-methyl-3-oxo-androsta-1,4-diene-17β-carbothioic acid S-fluoromethyl ester], the “clearance (in words)” value [2] was “similar”, the “pharmacokinetic parameters following intravenous administration (in words)” value [2] was “the same” and the “time after dosing up to which quantifiable in plasma” value [3] was “up to 2 hours”. The “Cmax” value ([3]; Pig 1) was 0.117 ng/mL, the “AUC (0-inf)” value ([3]; Pig 1) was 0.254 ng·h/mL and the “Cmax” value ([3]; Pig 2) was 0.081 ng/mL. The “AUC (0-inf)” value ([3]; Pig 2) was 0.221 ng·h/mL, the “systemic exposure compared to fluticasone propionate (in words)” value ([3]; dry powder delivery to the lungs of anaesthetised pigs) was “markedly reduced systemic exposure; also recorded: significantly lower exposure” and the plasma clearance ([1]; IV 0.1 mg/kg, male Wistar Han rats) was 47.3 mL/min/kg. The “plasma clearance (in words)” value [1] was “approaching hepatic blood flow”, the “manner of metabolism (in words)” value (rat hepatocytes) was “metabolised in an identical manner to fluticasone propionate” and the “inhibition of lung eosinophilia (in words)” value (lung eosinophilia; intra-tracheal suspension in saline 30 min prior to ovalbumin challenge) was “dose dependant inhibition”. For the same compound, the “inhibition of lung eosinophilia” value (lung eosinophilia) was 69%, the “reduction of thymus weight” value (thymus weight) was 67% and the “manner of metabolism (in words)” value (human hepatocytes) was “metabolised in an identical manner to fluticasone propionate”.
With `CCC(=O)O[C@]1(C(=O)SCF)[C@H](C)C[C@H]2[C@@H]3C[C@H](F)C4=CC(=O)C=C[C@]4(C)[C@@]3(F)[C@@H](O)C[C@@]21C` [Fluticasone propionate, 6α, 9α-Difluoro-17α-(1-oxopropoxy)-11β-hydroxy-16α-methyl-3-oxo-androsta-1,4-diene-17β-carbothioic acid S-fluoromethyl ester, reference compound] the “clearance (in words)” value [2] was “similar”, the “pharmacokinetic parameters following intravenous administration (in words)” value [2] was “the same” and the “time after dosing up to which quantifiable in plasma” value [3] was “up to 8 hours”. The “inhibition of lung eosinophilia” value (lung eosinophilia) was 41% and the “reduction of thymus weight” value (thymus weight) was 78%.
With `CC1CC2C3CC(F)C4=CC(=O)C=CC4(C)C3(F)C(O)CC2(C)C1(OC(=O)c1ccsc1)C(=O)SCF` (stereo not drawn) [Example 4, 6α,9α-Difluoro-11β-hydroxy-16α-methyl-3-oxo-17α-[(3-thienylcarbonyl)oxy]-androsta-1,4-diene-17β-carbothioic acid S-fluoromethyl ester] the clearance (in vivo) was 49 mL/min/kg and the “plasma clearance (in words)” value [1] was “approaching hepatic blood flow”.
With `C[C@@H]1C[C@H]2[C@@H]3C[C@H](F)C4=CC(=O)C=C[C@]4(C)[C@@]3(F)[C@@H](O)C[C@]2(C)[C@@]1(OC(=O)c1cc(Cl)sc1Cl)C(=O)SCF` [Example 14, 17α-[(2,5-Dichlorothiophene-3-carbonyl)oxy]-6α,9α-difluoro-11β-hydroxy-16α-methyl-3-oxo-androsta-1,4-diene-17β-carbothioic acid S-fluoromethyl ester] the EC50 (glucocorticoid receptor) was 2 nM.
`Cc1ncsc1C(=O)OC1(C(=O)SCF)C(C)CC2C3CC(F)C4=CC(=O)C=CC4(C)C3(F)C(O)CC21C` (stereo not drawn) [Example 41, 6α,9α-Difluoro-11β-hydroxy-16α-methyl-17α-[(4-methyl-1,3-thiazole-5-carbonyl)oxy]-3-oxo-androsta-1,4-diene-17β-carbothioic acid S-fluoromethyl ester] showed a clearance (in vivo) of 42 mL/min/kg.
